{"source": "ChEMBL document CHEMBL3862033", "about": "(J Med Chem, 2016)", "key": {"[1]": {"biological_target": "Sodium-dependent dopamine transporter (Homo sapiens, UniProt Q01959)", "sequence (Q01959 whole entry)": "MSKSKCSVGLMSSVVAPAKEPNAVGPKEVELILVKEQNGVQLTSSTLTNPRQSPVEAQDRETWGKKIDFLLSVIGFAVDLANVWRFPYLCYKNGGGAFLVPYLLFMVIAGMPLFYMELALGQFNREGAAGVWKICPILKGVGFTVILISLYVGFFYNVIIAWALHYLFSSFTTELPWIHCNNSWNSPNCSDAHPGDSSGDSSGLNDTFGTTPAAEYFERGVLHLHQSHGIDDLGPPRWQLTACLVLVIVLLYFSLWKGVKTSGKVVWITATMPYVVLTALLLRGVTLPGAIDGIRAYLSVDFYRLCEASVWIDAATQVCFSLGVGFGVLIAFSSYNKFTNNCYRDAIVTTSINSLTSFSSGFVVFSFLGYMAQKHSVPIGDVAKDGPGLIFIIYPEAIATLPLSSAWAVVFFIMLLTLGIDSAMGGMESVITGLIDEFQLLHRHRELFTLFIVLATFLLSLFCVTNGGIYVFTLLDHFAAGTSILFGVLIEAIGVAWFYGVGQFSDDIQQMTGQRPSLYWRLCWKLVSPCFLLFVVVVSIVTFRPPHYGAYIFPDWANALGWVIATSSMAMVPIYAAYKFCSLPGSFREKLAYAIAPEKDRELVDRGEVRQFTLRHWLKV", "test": "Inhibition of human dopamine transporter expressed in HEK293 cells assessed as inhibition of dopamine uptake measured after 30 mins by fluorescence analysis", "format": "cell-based"}, "[2]": {"biological_target": "T1, 5-hydroxytryptamine receptor 2A (Homo sapiens, UniProt P28223)", "T1 sequence (P28223 whole entry)": "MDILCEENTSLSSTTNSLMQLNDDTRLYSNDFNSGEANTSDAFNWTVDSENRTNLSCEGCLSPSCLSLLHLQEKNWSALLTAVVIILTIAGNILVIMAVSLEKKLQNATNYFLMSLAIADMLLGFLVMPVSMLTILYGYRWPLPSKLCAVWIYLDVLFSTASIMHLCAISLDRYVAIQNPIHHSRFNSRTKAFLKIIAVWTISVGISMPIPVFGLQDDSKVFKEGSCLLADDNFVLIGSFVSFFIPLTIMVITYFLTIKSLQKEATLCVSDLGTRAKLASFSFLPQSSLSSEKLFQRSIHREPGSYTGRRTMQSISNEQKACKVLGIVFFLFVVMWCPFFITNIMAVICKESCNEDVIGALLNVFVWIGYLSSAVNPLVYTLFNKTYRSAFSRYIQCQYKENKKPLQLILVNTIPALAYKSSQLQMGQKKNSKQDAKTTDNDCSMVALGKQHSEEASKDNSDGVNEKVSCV", "test": "Agonist activity at human 5-HT2AR expressed in Flp-In HEK cells assessed as calcium mobilization at 10 uM measured for 2 mins by Fluo-4 dye based FLIPR assay", "format": "cell-based", "conditions": "hek293, 2 min"}, "[3]": {"biological_target": "T1, 5-hydroxytryptamine receptor 2A", "test": "Antagonist activity at human 5-HT2AR expressed in Flp-In HEK cells assessed as inhibition of serotonin induced calcium mobilization at 10 uM preincubated for 5 to 10 mins followed by serotonin addition by Fluo-4 dye based FLIPR assay relative to control", "format": "functional, cell-based", "conditions": "HEK293"}, "Adenosine receptor A2a": {"biological_target": "Adenosine receptor A2a (Homo sapiens, UniProt P29274)", "sequence (P29274 whole entry)": "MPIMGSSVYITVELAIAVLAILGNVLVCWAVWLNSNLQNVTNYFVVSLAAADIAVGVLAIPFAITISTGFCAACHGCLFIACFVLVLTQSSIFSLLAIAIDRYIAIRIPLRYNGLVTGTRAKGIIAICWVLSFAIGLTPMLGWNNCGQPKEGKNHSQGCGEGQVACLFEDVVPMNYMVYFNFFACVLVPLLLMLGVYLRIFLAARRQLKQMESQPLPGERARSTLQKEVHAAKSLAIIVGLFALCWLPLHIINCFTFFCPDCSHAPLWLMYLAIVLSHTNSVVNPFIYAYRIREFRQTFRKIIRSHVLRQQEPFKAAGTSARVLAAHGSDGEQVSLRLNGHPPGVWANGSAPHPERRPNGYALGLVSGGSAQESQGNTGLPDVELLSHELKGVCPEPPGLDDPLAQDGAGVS", "test": "Displacement of [3 H]2-[p-(2-carboxyethyl)phenyl-ethylamino]-5'-N-ethylcarboxamidoadenosine from recombinant human adenosine receptor A2A expressed in HEK293 cell membranes at 10 uM after 60 mins by liquid scintillation counting method relative to control"}, "[4]": {"test": "Stability of compound in pH 6.5 fasted state simulated intestinal fluid assessed as compound remaining measured after 2 hrs", "format": "ADME", "conditions": "simulated gi fluid, pH 6.5, 2 h"}, "Cytochrome P450 3A4": {"biological_target": "Cytochrome P450 3A4 (Homo sapiens, UniProt P08684)", "sequence (P08684 whole entry)": "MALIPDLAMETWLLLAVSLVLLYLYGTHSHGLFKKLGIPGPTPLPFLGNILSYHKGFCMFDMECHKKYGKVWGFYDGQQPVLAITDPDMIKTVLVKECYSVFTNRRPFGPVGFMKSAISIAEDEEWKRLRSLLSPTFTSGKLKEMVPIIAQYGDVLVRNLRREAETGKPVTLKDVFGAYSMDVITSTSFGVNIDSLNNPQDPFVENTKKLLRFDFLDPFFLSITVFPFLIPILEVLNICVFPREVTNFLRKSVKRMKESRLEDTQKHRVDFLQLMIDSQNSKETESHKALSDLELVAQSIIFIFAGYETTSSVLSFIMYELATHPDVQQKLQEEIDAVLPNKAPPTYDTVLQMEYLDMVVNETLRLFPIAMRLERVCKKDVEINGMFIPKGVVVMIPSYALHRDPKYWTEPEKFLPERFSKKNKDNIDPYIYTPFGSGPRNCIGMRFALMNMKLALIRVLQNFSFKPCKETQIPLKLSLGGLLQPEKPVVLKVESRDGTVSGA", "test": "Inhibition of CYP3A4 (unknown origin)", "format": "ADME"}, "Cytochrome P450 1A2": {"biological_target": "Cytochrome P450 1A2 (Homo sapiens, UniProt P05177)", "sequence (P05177 whole entry)": "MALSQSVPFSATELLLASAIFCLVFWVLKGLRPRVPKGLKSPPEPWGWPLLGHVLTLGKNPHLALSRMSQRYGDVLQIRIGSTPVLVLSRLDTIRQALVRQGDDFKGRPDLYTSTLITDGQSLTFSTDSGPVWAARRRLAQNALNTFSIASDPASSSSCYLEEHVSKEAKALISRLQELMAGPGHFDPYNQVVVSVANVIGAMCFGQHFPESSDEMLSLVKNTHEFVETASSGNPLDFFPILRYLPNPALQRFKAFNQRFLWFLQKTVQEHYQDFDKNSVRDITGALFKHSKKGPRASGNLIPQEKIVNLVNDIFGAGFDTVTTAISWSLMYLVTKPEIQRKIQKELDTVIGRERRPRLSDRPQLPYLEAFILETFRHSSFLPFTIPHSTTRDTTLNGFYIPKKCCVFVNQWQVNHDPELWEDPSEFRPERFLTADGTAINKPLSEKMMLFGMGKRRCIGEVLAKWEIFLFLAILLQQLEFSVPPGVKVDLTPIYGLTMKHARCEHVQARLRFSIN", "test": "Inhibition of CYP1A2 (unknown origin)", "format": "ADME"}, "Cytochrome P450 2D6": {"biological_target": "Cytochrome P450 2D6 (Homo sapiens, UniProt P10635)", "sequence (P10635 whole entry)": "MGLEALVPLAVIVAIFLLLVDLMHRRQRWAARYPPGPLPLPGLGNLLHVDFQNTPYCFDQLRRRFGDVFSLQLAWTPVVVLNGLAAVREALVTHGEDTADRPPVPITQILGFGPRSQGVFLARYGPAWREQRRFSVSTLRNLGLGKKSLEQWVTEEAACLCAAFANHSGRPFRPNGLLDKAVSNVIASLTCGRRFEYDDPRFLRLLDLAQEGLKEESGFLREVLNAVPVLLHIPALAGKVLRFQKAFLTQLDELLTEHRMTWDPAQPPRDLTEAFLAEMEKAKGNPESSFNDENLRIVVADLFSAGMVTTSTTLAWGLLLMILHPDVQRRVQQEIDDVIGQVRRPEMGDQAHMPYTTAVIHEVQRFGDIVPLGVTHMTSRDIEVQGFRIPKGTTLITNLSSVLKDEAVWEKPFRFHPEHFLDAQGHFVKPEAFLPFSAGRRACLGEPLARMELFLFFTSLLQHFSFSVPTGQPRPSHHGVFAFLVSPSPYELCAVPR", "test": "Inhibition of CYP2D6 (unknown origin)", "format": "ADME"}, "Cytochrome P450 2C19": {"biological_target": "Cytochrome P450 2C19 (Homo sapiens, UniProt P33261)", "sequence (P33261 whole entry)": "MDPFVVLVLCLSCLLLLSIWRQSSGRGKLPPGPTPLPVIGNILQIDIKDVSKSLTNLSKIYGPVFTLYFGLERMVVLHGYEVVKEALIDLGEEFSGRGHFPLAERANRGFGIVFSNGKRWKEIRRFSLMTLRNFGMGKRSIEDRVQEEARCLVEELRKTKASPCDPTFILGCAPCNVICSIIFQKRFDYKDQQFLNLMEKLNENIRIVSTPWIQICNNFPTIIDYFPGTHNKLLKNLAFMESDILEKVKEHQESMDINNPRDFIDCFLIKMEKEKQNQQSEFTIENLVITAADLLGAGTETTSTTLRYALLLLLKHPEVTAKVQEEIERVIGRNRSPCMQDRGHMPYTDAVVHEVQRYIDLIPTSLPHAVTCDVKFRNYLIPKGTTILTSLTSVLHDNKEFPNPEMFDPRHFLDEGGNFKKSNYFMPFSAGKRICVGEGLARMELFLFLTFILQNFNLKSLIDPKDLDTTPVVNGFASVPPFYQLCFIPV", "test": "Inhibition of CYP2C19 (unknown origin)", "format": "ADME"}}, "data": [{"smiles": "OC[C@@]12C[C@@H]1[C@@H](n1cnc3c(NC(C4CC4)C4CC4)nc(Cl)nc31)[C@H](O)[C@@H]2O", "values": [{"measurement": "Ki", "setting": "[1]", "value": 4.8, "unit": "µM"}]}, {"smiles": "CCOC(=O)[C@@]12C[C@@H]1[C@@H](n1cnc3c(NC(C4CC4)C4CC4)nc(Cl)nc31)[C@H](O)[C@@H]2O", "values": [{"measurement": "Activity", "setting": "[2]", "value": "> 10", "unit": "%"}, {"measurement": "inhibition", "setting": "[3]", "value": "> 10", "unit": "%"}]}, {"smiles": "COC(=O)[C@@]12C[C@@H]1[C@@H](n1cnc3c(NC(C4CC4)C4CC4)nc(Cl)nc31)[C@H](O)[C@@H]2O", "values": [{"measurement": "inhibition", "setting": "Adenosine receptor A2a", "value": 33, "unit": "%"}, {"measurement": "Stability", "setting": "[4]", "value": 97, "unit": "%"}]}, {"smiles": "CNC(=O)[C@@]12C[C@@H]1[C@@H](n1cnc3c(NC(C4CC4)C4CC4)nc(Cl)nc31)[C@H](O)[C@@H]2O", "values": [{"measurement": "IC50", "setting": "Cytochrome P450 3A4", "value": "> 30", "unit": "µM"}, {"measurement": "IC50", "setting": "Cytochrome P450 1A2", "value": "> 30", "unit": "µM"}, {"measurement": "IC50", "setting": "Cytochrome P450 2D6", "value": "> 30", "unit": "µM"}, {"measurement": "IC50", "setting": "Cytochrome P450 2C19", "value": "> 30", "unit": "µM"}]}]}
